molecular target: T1, hGPR120 (Homo sapiens, UniProt Q5NUL3); test: Measurement of Activity of GPR120 Agonist (Cell-Based Assay), Calcium 5 dye fluorescence; settings: CHO-K1 cells expressing Ga16 and hGPR120
T1 construct: expressed in transfected cells; host or cells: CHO-K1
T1 sequence (Q5NUL3 1-361): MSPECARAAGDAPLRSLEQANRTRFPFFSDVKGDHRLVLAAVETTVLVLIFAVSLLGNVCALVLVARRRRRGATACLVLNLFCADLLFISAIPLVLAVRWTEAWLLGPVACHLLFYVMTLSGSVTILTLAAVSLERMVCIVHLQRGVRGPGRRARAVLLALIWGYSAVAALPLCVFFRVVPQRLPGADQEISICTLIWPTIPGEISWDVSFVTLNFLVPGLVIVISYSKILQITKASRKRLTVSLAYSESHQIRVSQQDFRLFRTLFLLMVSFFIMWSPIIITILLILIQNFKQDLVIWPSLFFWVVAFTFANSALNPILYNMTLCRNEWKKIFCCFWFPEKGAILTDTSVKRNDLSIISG
Method in brief: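 Agonist-evoked calcium signal, expressed as percent relative to DMSO-only wells, read at 485/525 nm after serial-dilution addition (0.5% DMSO final). Cells were hGPR120/Gα16 CHO-K1, seeded 18 h earlier and dye-loaded for 1 h at 37°C.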

Structure (SMILES) | EC50 [nM]
Cc1nsc(OC2CCC2)c1-c1cc(F)c(N2CCC(CC(=O)O)C2)c(F)c1 (stereo not shown) [Example 591, {1-[4-(5-cyclobutoxy-3-methyl-isothiazol-4-yl)-2,6-difluoro-phenyl]-pyrrolidin-3-yl}-acetic acid] | < 200
O=C(O)CC1CCN(c2c(F)cc(-c3ncc(F)c(OC4CCC4)n3)cc2F)C1 (stereo not shown) [Example 592, {1-[4-(4-cyclobutoxy-5-fluoro-pyrimidin-2-yl)-2,6-difluoro-phenyl]-pyrrolidin-3-yl}-acetic acid] | 200 to 2000
CC(C)COc1nc(-c2cc(F)c(N3CCC(CC(=O)O)C3)c(F)c2)ncc1F (stereo not shown) [Example 594, {1-[2,6-difluoro-4-(5-fluoro-4-isobutoxy-pyrimidin-2-yl)-phenyl]-pyrrolidin-3-yl}-acetic acid] | 200 to 2000
COCCCOc1cccc(-c2cc(F)c(N3CCC(CC(=O)O)C3)c(F)c2)n1 (stereo not shown) [Example 595, (1-{2,6-difluoro-4-[6-(3-methoxy-propoxy)-pyridin-2-yl]-phenyl}-pyrrolidin-3-yl)-acetic acid] | 200 to 2000
O=C(O)CC1CCN(c2c(F)cc(-c3cccc(OC4CCSCC4)n3)cc2F)C1 (stereo not shown) [Example 596] | 200 to 2000
CC(C)COc1nc(-c2cc(F)c(N3CCC(CC(=O)O)CC3)c(F)c2)ncc1F [Example 597, {1-[2,6-difluoro-4-(5-fluoro-4-isobutoxy-pyrimidin-2-yl)-phenyl]-piperidin-4-yl}-acetic acid] | 200 to 2000
CC(C)CCOc1ccnc(-c2cc(F)c(N3CCC(CC(=O)O)CC3)c(F)c2)n1 [Example 599, (1-{2,6-difluoro-4-[4-(3-methyl-butoxy)-pyrimidin-2-yl]-phenyl}-piperidin-4-yl)-acetic acid] | 200 to 2000
COCCCOc1ccnc(-c2cc(F)c(N3CCC(CC(=O)O)CC3)c(F)c2)n1 [Example 600, (1-{2,6-difluoro-4-[4-(3-methoxy-propoxy)-pyrimidin-2-yl]-phenyl}-piperidin-4-yl)-acetic acid] | 200 to 2000
COCCCOc1cc(C)nc(-c2cc(F)c(N3CCC(CC(=O)O)CC3)c(F)c2)n1 [Example 601, (1-{2,6-difluoro-4-[4-(3-methoxy-propoxy)-6-methyl-pyrimidin-2-yl]-phenyl}-piperidin-4-yl)-acetic acid] | 200 to 2000
CCc1ccc(Oc2ccnc(-c3cc(F)c(N4CCC(CC(=O)O)CC4)c(F)c3)n2)cc1 [Example 606, 2-[1-[2,6-difluoro-4-[6-(4-ethylphenoxy)pyrimidin-2-yl]phenyl]-4-piperidyl]acetic acid] | 200 to 2000
O=C(O)CC1CCN(c2c(F)cc(-c3nccc(Oc4ccccn4)n3)cc2F)CC1 [Example 609, 2-[1-[2,6-difluoro-4-[4-(2-pyridyloxy)pyrimidin-2-yl]phenyl]-4-piperidyl]acetic acid] | 200 to 2000
Cc1cc(Oc2ccc(C(F)(F)F)cc2)nc(-c2cc(F)c(N3CCC(CC(=O)O)CC3)c(F)c2)n1 [Example 612, 2-[1-[2,6-difluoro-4-[4-methyl-6-[4-(trifluoromethyl)phenoxy]pyrimidin-2-yl]phenyl]-4-piperidyl]acetic acid] | 2000 to 20000
O=C(O)CC1CCN(c2c(F)cc(-c3cc(C(F)(F)F)cc(OC4CCC4)n3)cc2F)CC1 [Example 614, {1-[4-(6-cyclobutoxy-4-trifluoromethyl-pyridin-2-yl)-2,6-difluoro-phenyl]-piperidin-4-yl}-acetic acid] | 2000 to 20000
O=C(O)CC1CCN(c2c(F)cc(-c3nc(OC4CCC4)cc(C(F)(F)F)n3)cc2F)CC1 [Example 617, {1-[4-(4-cyclobutoxy-6-trifluoromethyl-pyrimidin-2-yl)-2,6-difluoro-phenyl]-piperidin-4-yl}-acetic acid] | > 20000
CCOc1cccc(-c2cc(F)c(N3CCC(CCC(=O)O)CC3)c(F)c2)n1 [Example 622, 3-{1-[4-(6-ethoxy-pyridin-2-yl)-2,6-difluoro-phenyl]-piperidin-4-yl}-propionic acid] | 200 to 2000

Other lines, results leading:

EC50 [nM] | Structure (SMILES)
< 200 | CCOc1cc(C)nc(-c2cc(F)c(N3CCC(CC(=O)O)C3)c(F)c2)n1 (stereo not shown) [Example 590, {1-[4-(4-ethoxy-6-methyl-pyrimidin-2-yl)-2,6-difluoro-phenyl]-pyrrolidin-3-yl}-acetic acid]
200 to 2000 | O=C(O)CC1CCN(c2c(F)cc(-c3ncc(F)c(OCC4CC4)n3)cc2F)C1 (stereo not shown) [Example 593, {1-[4-(4-cyclopropylmethoxy-5-fluoro-pyrimidin-2-yl)-2,6-difluoro-phenyl]-pyrrolidin-3-yl}-acetic acid]
< 200 | CCCOc1nc(-c2cc(F)c(N3CCC(CC(=O)O)CC3)c(F)c2)ncc1F [Example 598, {1-[2,6-difluoro-4-(5-fluoro-4-propoxy-pyrimidin-2-yl)-phenyl]-piperidin-4-yl}-acetic acid]
200 to 2000 | COCCOc1cc(C)nc(-c2cc(F)c(N3CCC(CC(=O)O)CC3)c(F)c2)n1 [Example 602, (1-{2,6-difluoro-4-[4-(2-methoxy-ethoxy)-6-methyl-pyrimidin-2-yl]-phenyl}-piperidin-4-yl)-acetic acid]
< 200 | O=C(O)C[C@@H]1CCN(c2c(F)cc(-c3cccc(OCC4CC4)n3)cc2F)C1 [Example 604, {(S)-1-[4-(6-cyclopropylmethoxy-pyridin-2-yll)-2,6-difluoro-phenyl]-pyrrolidin-3-yl}-acetic acid]
< 200 | O=C(O)CC1CCN(c2c(F)cc(-c3nccc(Oc4cccc(F)c4)n3)cc2F)CC1 [Example 607, 2-[1-[4-[4-(3-fluorophenoxy)pyrimidin-2-yl]-2,6-difluoro-phenyl]-4-piperidyl]acetic acid]
200 to 2000 | Cc1cc(Oc2ccc(F)c(F)c2)nc(-c2cc(F)c(N3CCC(CC(=O)O)CC3)c(F)c2)n1 [Example 608, 2-[1-[2,6-difluoro-4-[4-(3,4-fluorophenoxy)-6-methyl-pyrimidin-2-yl]phenyl]-4-piperidyl]acetic acid]
200 to 2000 | O=C(O)CC1CCN(c2c(F)cc(-c3nccc(Oc4ccc(C(F)(F)F)cc4)n3)cc2F)CC1 [Example 610, 2-[1-[2,6-difluoro-4-[4-[4-(trifluoromethyl)phenoxy]pyrimidin-2-yl]phenyl]-4-piperidyl]acetic acid]
200 to 2000 | O=C(O)CC1CCN(c2c(F)cc(-c3nccc(Oc4cccc(C(F)(F)F)c4)n3)cc2F)CC1 [Example 611, 2-[1-[2,6-difluoro-4-[4-[3-(trifluoromethyl)phenoxy]pyrimidin-2-yl]phenyl]-4-piperidyl]acetic acid]
2000 to 20000 | Cc1cc(Oc2cccc(C(F)(F)F)c2)nc(-c2cc(F)c(N3CCC(CC(=O)O)CC3)c(F)c2)n1 [Example 613, 2-[1-[2,6-difluoro-4-[4-methyl-6-[3-(trifluoromethyl)phenoxy]pyrimidin-2-yl]phenyl]-4-piperidyl]acetic acid]
2000 to 20000 | O=C(O)CC1CCN(c2c(F)cc(-c3cccc4sc(-c5ccc(F)cc5)cc34)cc2F)CC1 [Example 615, (1-{2,6-difluoro-4-[2-(4-fluoro-phenyl)-benzo[b]thiophen-4-yl]-phenyl}-piperidin-4-yl)-acetic acid]
200 to 2000 | Cc1cccc(-c2cc3c(-c4cc(F)c(N5CCC(CC(=O)O)CC5)c(F)c4)cccc3s2)c1 [Example 616, {1-[2,6-difluoro-4-(2-m-tolyl-benzo[b]thiophen-4-yl)-phenyl]-piperidin-4-yl}-acetic acid]
2000 to 20000 | CCCOc1cc(C(F)(F)F)nc(-c2cc(F)c(N3CCC(CC(=O)O)CC3)c(F)c2)n1 [Example 618, {1-[2,6-difluoro-4-(4-propoxy-6-trifluoromethyl-pyrimidin-2-yl)-phenyl]-piperidin-4-yl}-acetic acid]
2000 to 20000 | O=C(O)CC1CCN(c2c(F)cc(-c3nc(Oc4ccc(F)cc4)cc(C(F)(F)F)n3)cc2F)CC1 [Example 619, (1-{2,6-difluoro-4-[4-(4-fluoro-phenoxy)-6-trifluoromethyl-pyrimidin-2-yl]-phenyl}-piperidin-4-yl)-acetic acid]
200 to 2000 | CCCOc1cccc(-c2cc(F)c(N3CCC(CCC(=O)O)CC3)c(F)c2)n1 [Example 620, 3-{1-[2,6-difluoro-4-(6-propoxy-pyridin-2-yl)-phenyl]-piperidin-4-yl}-propionic acid]
200 to 2000 | O=C(O)CCC1CCN(c2c(F)cc(-c3cccc(C4CCC4)n3)cc2F)CC1 [Example 621, 3-{1-[4-(6-cyclobutyl-pyridin-2-yl)-2,6-difluoro-phenyl]-piperidin-4-yl}-propionic acid]
